Assay results taken from US20230250096A1, “SUBSTITUTED PHENYL-1H-PYRROLO[2,3-c] PYRIDINE DERIVATIVES” (Janssen Pharmaceutica NV, priority 2021, published 2023).

Tests used:
[1] = target: T1, menin/MLL (terbium chelate-labeled menin, FITC-MBM1 peptide) (Homo sapiens, UniProt O00255, T541A); assay: Menin/MLL homogenous time-resolved fluorescence (HTRF) assay; format: binding; settings: 30 min incubation
T1 construct: Menin (a.a 1-610-6xhis tag, 2.3 mg/mL in 20 mM Hepes)
T1 sequence (O00255 with tags, fused parts or gaps T541A): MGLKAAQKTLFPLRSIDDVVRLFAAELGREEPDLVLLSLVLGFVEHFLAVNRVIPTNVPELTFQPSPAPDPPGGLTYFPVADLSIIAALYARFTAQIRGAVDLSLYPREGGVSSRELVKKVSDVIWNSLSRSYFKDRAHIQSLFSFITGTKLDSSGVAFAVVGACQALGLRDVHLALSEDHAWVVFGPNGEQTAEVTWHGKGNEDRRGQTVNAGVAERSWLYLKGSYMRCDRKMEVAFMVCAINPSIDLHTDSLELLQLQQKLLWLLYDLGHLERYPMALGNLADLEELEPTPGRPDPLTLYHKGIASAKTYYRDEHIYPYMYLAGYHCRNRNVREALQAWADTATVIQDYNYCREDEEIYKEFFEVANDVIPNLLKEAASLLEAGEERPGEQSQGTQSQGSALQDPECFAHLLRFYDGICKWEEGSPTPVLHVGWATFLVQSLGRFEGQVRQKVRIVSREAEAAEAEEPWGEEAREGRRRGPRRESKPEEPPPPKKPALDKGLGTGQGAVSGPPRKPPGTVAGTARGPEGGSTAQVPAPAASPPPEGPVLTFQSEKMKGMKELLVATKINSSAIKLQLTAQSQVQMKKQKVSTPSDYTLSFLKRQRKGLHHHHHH
Method in brief: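 Competition binding read by time-resolved FRET (FITC 520 nm over terbium 490 nm) after compound meets labeled menin 1-610-His […] for 30 min, then FITC-MBM1 (75 nM) for 15 min, ambient temperature, 0.5% DMSO. Eleven-point four-fold dilutions, usually starting at 10 μM, fitted to four-parameter curves for IC50.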

[2] = tested on: MEIS1 mRNA expression; assay: MEIS1 mRNA expression assay (Quantigene Singleplex) in MOLM14 cells; format: cell-based, human; settings: 48 hours incubation
Method in brief: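 Read-out: MEIS1 transcript counts, background-subtracted and divided by RPL28, expressed as fold change over DMSO-treated cells, then dose-response modelled for IC50. MOLM14 cells (3,750/well) received graded compound for 48 h before lysis and QuantiGene hybridization at 55 °C.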

Compound	IC50 [1]	IC50 ([2]; Homo sapiens, MOLM-14, 48 h)	IC50 [2]
CON(C)C(=O)N1CCC(CN2CCC(Cc3cn(-c4ccc(F)cc4C(=O)N(C)C(C)C)c4cncc(C)c34)CC2)CC1 [Compound 203]	0.069 nM	43 nM	
CC(=O)N1CCC(N2CC[C@H](Cc3cn(-c4ccc(F)cc4C(=O)N(C)C(C)C)c4cncc(C)c34)C2)C(C)C1 (single isomer, unassigned) [Compound 137a]	0.063 nM		14 nM
COCCN(C)CCCC(C(C)C)N1CC[C@H](Cc2cn(-c3ccc(F)cc3C(=O)N(C)C(C)C)c3cncc(Cl)c23)C1 (stereo partly shown) [Compound 4]	0.016 nM	11 nM	
COCCN(C)CCCC(C(C)C)N1CC[C@H](Cc2cn(-c3ccc(F)cc3C(=O)N(C)C(C)C)c3cncc(C)c23)C1 (single isomer, unassigned) [Compound 2]	0.049 nM	3 nM	
CC(=O)N1CCC(CN2CC[C@@H](Cc3cn(-c4ccc(F)cc4C(=O)N(CC(C)O)C(C)C)c4cncc(C)c34)C2)CC1 (stereo partly shown) [Compound 320]	0.078 nM	23 nM	
Cc1cncc2c1c(CC1CCN(CC3CCN(C(=O)N4CCOCC4)CC3)CC1)cn2-c1ccc(F)cc1C(=O)N(C)C(C)C [Compound 204]	0.091 nM	79 nM	
CC(=O)N1CCC(CN2CCC(Cc3cn(-c4ccc(F)cc4C(=O)N(C)C(C)C)c4cncc(C)c34)C2C)CC1 (stereo not shown) [Compound 228]	0.061 nM		8 nM
CC(=O)N1C[C@@H]2CN(CCC[C@H](C(C)C)N3CC[C@H](Cc4cn(-c5ccc(F)cc5C(=O)N(C)C(C)C)c5cncc(Cl)c45)C3)C[C@H]2C1 (single isomer, unassigned) [Compound 19a]	0.032 nM	< 3.3 nM	
Cc1cncc2c1c(C[C@@H]1CCN(C[C@H]3CCCCN3)C1)cn2-c1ccc(F)cc1C(=O)N(C)C(C)C [Compound 199]	0.327 nM	338 nM	
Cc1cncc2c1c(CC1CCN(CC3CCC(=O)N(C)CC3)C1)cn2-c1ccc(F)cc1C(=O)N(C)C(C)C (single isomer, unassigned) [Compound 184b]	0.065 nM		115 nM
Cc1cncc2c1c(C[C@@H]1CCN([C@@H](CO)C3CCCOC3)C1)cn2-c1ccc(F)cc1C(=O)N(C)C(C)C (single isomer, unassigned) [Compound 198a]	0.034 nM	13 nM	
Cc1cncc2c1c(CC1CCN(CC3CCN(C(=O)C(C)(C)O)CC3)C1)cn2-c1ccc(F)cc1C(=O)N(C)C(C)C (single isomer, unassigned) [Compound 125]	0.027 nM	16 nM	
CNC(=O)c1cncc(N2CCC(N3CC(Cc4cn(-c5ccc(F)cc5C(=O)N(C)C(C)C)c5cncc(C)c45)C3)CC2)n1 [Compound 75]	0.059 nM	119 nM	
Cc1cncc2c1c(C[C@@H]1CCN(C[C@@H]3CCOC3)C1)cn2-c1ccc(F)cc1C(=O)N(C)C(C)C (single isomer, unassigned) [Compound 190b]	0.063 nM	65 nM	
CC(=O)N1C[C@@H]2CN([C@H]3C[C@@H](C(C(C)C)N4CC[C@H](Cc5cn(-c6ccc(F)cc6C(=O)N(C)C(C)C)c6cncc(C)c56)C4)C3)C[C@H]2C1 (mixture of isomers) [Compound 21]	0.052 nM	< 2.3 nM	
Cc1cncc2c1c(C[C@@H]1CCN(C[C@H]3CCOC3)C1)cn2-c1ccc(F)cc1C(=O)N(C)C(C)C (single isomer, unassigned) [Compound 190a]	0.101 nM	113 nM	
CC(=O)N1CCC(C)(CN2CC(Cc3cn(-c4ccc(F)cc4C(=O)N(C)C(C)C)c4cncc(C)c34)C2)CC1 [Compound 84]	0.075 nM	131 nM	
CNC(=O)N1CCC(CN2CCC(Cc3cn(-c4ccc(F)cc4C(=O)N(C)C(C)C)c4cncc(C)c34)CC2)CC1 [Compound 202]	0.081 nM	25 nM	
CNC(=O)[C@H]1CC[C@H](CN2CC(Cc3cn(-c4ccc(F)cc4C(=O)N(C)C(C)C)c4cncc(C)c34)C2)CC1 [Compound 74]	0.034 nM	12 nM	
Cc1cncc2c1c(C[C@@H]1CCN(C[C@H]3CC[C@@H](C(=O)N4CCC4)CC3)C1)cn2-c1ccc(F)cc1C(=O)N(C)C(C)C [Compound 178]	0.055 nM	14 nM	
